Data as given in patent US9556228B2 (Universitaet Leipzig, priority 2011, dated 2017).
Values after ≈ are worked out from the molar mass of the structure shown. “Also recorded” adds a separate entry of the source. Peptide text beside a SMILES is read from it. * marks the point of attachment. Orn(α-tetramethylguanidino) = CN(C)C(=N[C@@H](CCCN)C(=O)*)N(C)C

What was measured:
[1] = system: Escherichia coli ATCC25922; assay type: cell-based
S. aureus DSM 6247 [2] = assay type: cell-based, Staphylococcus aureus
[3] = system: Pseudomonas aeruginosa DSM 9644; assay type: cell-based
Method: (§1) The minimum inhibitory concentrations (MIC) of the peptides were determined in a double assay of triplicates using a positive control sample (gentamycin) and a negative control sample (0.9% NaCl solution), according to a modified protocol from Wiegand et al. (Wiegand, 2008).
(§2) […] Overnight cultures were adjusted using ⅛ MHB to approximately 1.5×10^7 colony forming units per mL. Of these, 50 μL of peptide solution per well was mixed with 50 μL bacteria solution each to obtain an initial concentration of […] bacteria per well. After 20 hours of incubation at 37′C, the absorption was determined at 595 nm (microplate reader, Wallac Victor3, Perkin Elmer). The minimum inhibitory concentration was identified as the lowest peptide concentration at which no bacterial growth could be detected.
(§3) In the experiment, the antibacterial activity of the peptides according to the invention in relation to the following bacterial strains was analyzed: Pseudomonas aeruginosa PAO1 (wt strain), Pseudomonas aeruginosa DSM 9644, Staphylococcus aureus DSM 1104/ATCC 25923, Staphylococcus aureus ATCC 6247, Escherichia coli UB 1005 (F—, nalA37, metB1) and Escherichia coli ATCC25922.

in vitro = details: for half-life: mouse
Method: The serum stability of selected apidaecin derivatives was also measured.

E. coli DSM 1103 = assay type: cell-based, Escherichia coli
Method: as §1
(§4) For this purpose, the peptides were dissolved in water and were diluted in a double dilution series with 1/8 MH (eight-fold diluted Mueller-Hinton-Medium—2.6 g/L, Merck) in sterile 96-well, plates (Greiner Bio-One GmbH) in twelve dilution steps from 128 μg/mL to 62.5 ng/mL. Overnight cultures were adjusted using ⅛ MHB to approximately 1.5×10^7 colony forming units per mL. Of these, 50 μL of peptide solution per well was mixed with 50 μL bacteria solution each to obtain an initial concentration of […] bacteria per well. After 20 hours of incubation at 37′C, the absorption was determined at 595 nm (microplate reader, Wallac Victor3, Perkin Elmer). The minimum inhibitory concentration was identified as the lowest peptide concentration at which no bacterial growth could be detected.

S. aureus DSM 6247 [4] = assay type: cell-based, Staphylococcus aureus; remark: listed apart in the source
Method: as §1, §4, §3

K. pneumoniae DSM 681 = assay type: cell-based
Method: as §1, §2

E. coli BL21AI = assay type: cell-based, Escherichia coli
[5] = cited from earlier work
[6] = system: Pseudomonas aeruginosa (luminescent strain); test: Substitution analysis of apidaecin 1b by peptide array, bioluminescence assay; assay type: cell-based; details: FIG. 1, luminescence, P. aeruginosa
Method: To optimize the antimicrobial activity of apidaecin 1b, a substitution analysis was carried out using this peptide (according to SEQ ID No. 2). The substitution library was synthesized by means of SPOT synthesis, and was analyzed for antibacterial activity against Pseudomonas aeruginosa by means of bioluminescence assay.
The SPOT synthesis of the peptide libraries was carried out on Whatman 50 filter paper (Sigma-Aldrich, Germany) measuring 19×29 cm by means of the Fmoc method and a SPOT synthesizer (Intavis AG, Germany) (according to Reineke U et al. 2001). The luminescence screening method that was used is based on the publication by Hilpert and Hancock (Hilpert, 2007). The peptides synthesized on the membrane were split off and the peptide spots were punched out of the peptide membrane using a hole punch, and were transferred to a 96-well microtiter plate (Corning, USA), after which 200 μL distilled water per well was added. […]
In the second step, the actual screening was performed. […] The incubation suspension (4 vol. % Log C in 100 mM Tris-HCl buffer (pH 7.3) with 40 mM sterile filtered glucose) was then distributed to 96-well plates (VWR, Germany) that are suitable for luminescence, and incubated with a concentration series of the peptide library for 4 hours at 37° C. After incubation, luminescence measurement was performed using a luminometer (Thermo, Finland).

CC[C@H](C)[C@H](NC(=O)[C@H](Cc1ccc(O)cc1)NC(=O)[C@@H](NC(=O)[C@@H]1CCCN1C(=O)[C@H](CCCNC(=N)N)NC(=O)[C@H](CC(N)=O)NC(=O)[C@H](Cc1c[nH]c2ccccc12)NC(=O)[C@H](CCCN)N=C(N(C)C)N(C)C)C(C)C)C(=O)N1CCC[C@H]1C(=O)N[C@@H](CCCNC(=N)N)C(=O)N1CCC[C@H]1C(=O)N[C@@H](CCCNC(=N)N)C(=O)N1CCC[C@H]1C(=O)N1CCC[C@H]1C(=O)N[C@@H](Cc1c[nH]cn1)C(=O)N1CCC[C@H]1C(=O)N[C@@H](CCCNC(=N)N)C(=O)N[C@@H](CC(C)C)C(=O)O [compound 85] ({Orn(α-tetramethylguanidino)}-WNRPVYIPRPRPPHPRL-OH; N-terminus and C-terminus assumed)
MIC E. coli ATCC 25922 TSB [1]: 4 µg/mL (≈ 1.69 µM) | MIC S. aureus DSM 6247 MHB (S. aureus DSM 6247 [2]): 4 µg/mL (≈ 1.69 µM) | MIC P. aeruginosa DSM 9644 TSB [3]: 8 to 16 µg/mL | MIC P. aeruginosa PAO DSM 9644 [3]: 16 µg/mL (≈ 6.77 µM) | half-life (in vitro; 100% mouse serum): 3.95 ± 0.25 h | MIC E. coli DSM 1103 (E. coli DSM 1103): 4 µg/mL (≈ 1.69 µM) | MIC S. aureus DSM 6247 (S. aureus DSM 6247 [4]): 16 µg/mL (≈ 6.77 µM) | MIC K. pneumoniae DSM 681 TSB (K. pneumoniae DSM 681): 2 µg/mL (≈ 0.846 µM) | MIC E. coli BL21AI TSB (E. coli BL21AI): 2 µg/mL (≈ 0.846 µM)

CC[C@H](C)[C@H](NC(=O)[C@H](Cc1ccc(O)cc1)NC(=O)[C@@H](NC(=O)[C@@H]1CCCN1C(=O)[C@H](CCCNC(=N)N)NC(=O)[C@H](CC(N)=O)NC(=O)[C@H](Cc1c[nH]c2ccccc12)NC(=O)[C@H](CCCN)N=C(N(C)C)N(C)C)C(C)C)C(=O)N1CCC[C@H]1C(=O)N[C@@H](CCCNC(=N)N)C(=O)N1CCC[C@H]1C(=O)N[C@@H](CCCNC(=N)N)C(=O)N[C@@H](CCCNC(=N)N)C(=O)N1CCC[C@H]1C(=O)N[C@@H](Cc1c[nH]cn1)C(=O)N1CCC[C@H]1C(=O)N[C@@H](CCCNC(=N)N)C(=O)N[C@@H](CC(C)C)C(=O)O [compound 87] ({Orn(α-tetramethylguanidino)}-WNRPVYIPRPRRPHPRL-OH; N-terminus and C-terminus assumed)
MIC E. coli ATCC 25922 TSB [1]: 8 µg/mL (≈ 3.3 µM) | MIC S. aureus DSM 6247 MHB (S. aureus DSM 6247 [2]): 4 µg/mL (≈ 1.65 µM) | MIC P. aeruginosa DSM 9644 TSB [3]: 8 µg/mL (≈ 3.3 µM) | MIC P. aeruginosa PAO DSM 9644 [3]: 8 µg/mL (≈ 3.3 µM) | peptide remaining, printed in the column t1/2 100% serum (in vitro; 100% mouse serum, after 2 hours): 0% after | MIC E. coli DSM 1103 (E. coli DSM 1103): 8 µg/mL (≈ 3.3 µM) | MIC S. aureus DSM 6247 (S. aureus DSM 6247 [4]): 16 µg/mL (≈ 6.6 µM) | MIC K. pneumoniae DSM 681 TSB (K. pneumoniae DSM 681): 4 to 8 µg/mL | MIC E. coli BL21AI TSB (E. coli BL21AI): 8 µg/mL (≈ 3.3 µM)

CC[C@H](C)[C@H](NC(=O)[C@H](Cc1ccc(O)cc1)NC(=O)[C@@H](NC(=O)[C@@H]1CCCN1C(=O)[C@H](CCCNC(=N)N)NC(=O)[C@H](CC(N)=O)NC(=O)[C@H](Cc1c[nH]c2ccccc12)NC(=O)[C@H](CCCN)N=C(N(C)C)N(C)C)C(C)C)C(=O)N1CCC[C@H]1C(=O)N[C@@H](CCCNC(=N)N)C(=O)N1CCC[C@H]1C(=O)N[C@@H](CCCNC(=N)N)C(=O)N[C@@H](CCCNC(=N)N)C(=O)N1CCC[C@H]1C(=O)N[C@@H](Cc1c[nH]cn1)C(=O)N1CCC[C@H]1C(=O)N[C@@H](CCCNC(=N)N)C(=O)N[C@@H](CC(C)C)C(N)=O [compound 89] ({Orn(α-tetramethylguanidino)}-WNRPVYIPRPRRPHPRL-NH2; N-terminus and C-terminus assumed)
MIC E. coli ATCC 25922 TSB [1]: 16 µg/mL (≈ 6.61 µM) | MIC S. aureus DSM 6247 MHB (S. aureus DSM 6247 [2]): 2 µg/mL (≈ 0.826 µM) | MIC P. aeruginosa DSM 9644 TSB [3]: 8 µg/mL (≈ 3.3 µM) | MIC P. aeruginosa PAO DSM 9644 [3]: 4 µg/mL (≈ 1.65 µM) | half-life (in vitro; 25% mouse serum): 0.267 ± 0.0167 h | MIC E. coli DSM 1103 (E. coli DSM 1103): 8 µg/mL (≈ 3.3 µM) | MIC S. aureus DSM 6247 (S. aureus DSM 6247 [4]): 8 to 16 µg/mL | MIC K. pneumoniae DSM 681 TSB (K. pneumoniae DSM 681): >64 µg/mL | MIC E. coli BL21AI TSB (E. coli BL21AI): 8 µg/mL (≈ 3.3 µM)

CC[C@H](C)[C@H](NC(=O)[C@H](Cc1ccc(O)cc1)NC(=O)[C@@H](NC(=O)[C@@H]1CCCN1C(=O)[C@H](CCCNC(=N)N)NC(=O)[C@H](CC(N)=O)NC(=O)[C@H](CC(N)=O)NC(=O)[C@H](CCCN)N=C(N(C)C)N(C)C)C(C)C)C(=O)N1CCC[C@H]1C(=O)N[C@@H](CCCNC(=N)N)C(=O)N1CCC[C@H]1C(=O)N[C@@H](CCCNC(=N)N)C(=O)N1CCC[C@H]1C(=O)N1CCC[C@H]1C(=O)N[C@@H](Cc1c[nH]cn1)C(=O)N1CCC[C@H]1C(=O)N[C@@H](CCCNC(=N)N)C(=O)N[C@@H](CC(C)C)C(N)=O [compound 92] ({Orn(α-tetramethylguanidino)}-NNRPVYIPRPRPPHPRL-NH2; N-terminus and C-terminus assumed)
MIC E. coli ATCC 25922 TSB [1]: 2 µg/mL (≈ 0.873 µM) | MIC S. aureus DSM 6247 MHB (S. aureus DSM 6247 [2]): 8 µg/mL (≈ 3.49 µM) | MIC P. aeruginosa DSM 9644 TSB [3]: 8 µg/mL (≈ 3.49 µM) | half-life (in vitro; 25% mouse serum): 0.25 ± 0.0167 h | MIC K. pneumoniae DSM 681 TSB (K. pneumoniae DSM 681): 2 µg/mL (≈ 0.873 µM) | MIC E. coli BL21AI TSB (E. coli BL21AI): 1 µg/mL (≈ 0.437 µM)

CC[C@H](C)[C@H](NC(=O)[C@H](Cc1ccc(O)cc1)NC(=O)[C@@H](NC(=O)[C@@H]1CCCN1C(=O)[C@H](CCCNC(=N)N)NC(=O)[C@H](CC(N)=O)NC(=O)[C@H](CC(N)=O)NC(=O)[C@H](CCCN)N=C(N(C)C)N(C)C)C(C)C)C(=O)N1CCC[C@H]1C(=O)N[C@@H](CCCNC(=N)N)C(=O)N1CCC[C@H]1C(=O)N[C@@H](CCCNC(=N)N)C(=O)N1CCC[C@H]1C(=O)N1CCC[C@H]1C(=O)N[C@@H](Cc1c[nH]cn1)C(=O)N1CCC[C@H]1C(=O)N[C@@H](CCCNC(=N)N)C(=O)N[C@@H](CC(C)C)C(=O)O [compound 93] ({Orn(α-tetramethylguanidino)}-NNRPVYIPRPRPPHPRL-OH; N-terminus and C-terminus assumed)
MIC E. coli ATCC 25922 TSB [1]: 4 µg/mL (≈ 1.75 µM) | MIC S. aureus DSM 6247 MHB (S. aureus DSM 6247 [2]): 16 to 32 µg/mL | MIC P. aeruginosa DSM 9644 TSB [3]: 16 µg/mL (≈ 6.98 µM) | half-life (in vitro; 100% mouse serum): 5.83 ± 0.567 h | MIC K. pneumoniae DSM 681 TSB (K. pneumoniae DSM 681): 2 µg/mL (≈ 0.873 µM) | MIC E. coli BL21AI TSB (E. coli BL21AI): 1 µg/mL (≈ 0.436 µM)

CC[C@H](C)[C@H](NC(=O)[C@@H]1CCCN1C(=O)[C@H](CCCNC(=N)N)NC(=O)[C@@H]1CCCN1C(=O)[C@H](Cc1cnc[nH]1)NC(=O)[C@H](CO)NC(=O)[C@@H](NC(=O)[C@@H]1CCCN1C(=O)[C@H](CCCNC(=N)N)NC(=O)[C@@H]1CCCN1C(=O)[C@H](CO)NC(=O)[C@H](Cc1ccc(O)cc1)NC(=O)[C@@H]1CCCN1C(=O)[C@H](CCCNC(=N)N)NC(=O)[C@@H]1CCCN1C(=O)[C@H](CCCCN)NC(=O)CN)[C@@H](C)O)C(=O)N[C@@H](CCCNC(=N)N)C(=O)N[C@H](C(=O)O)C(C)C [drosocin] (H-GKPRPYSPRPTSHPRPIRV-OH)
breakdown in mammalian serum (25%) [5]: broken down within one hour

gu-ONNRPVYIPRPRPPHPRL-NH2
fragment found (25% mouse serum): gu-O1-R17

gu-ONNRPVYIPRPRPPHPRL-OH
fragment found (100% mouse serum): gu-O1-R17

gu-OWNRPVYIPRPRPPHPRL-OH
fragment found (100% mouse serum): gu-O1-R17

gu-OWNRPVYIPRPRRPHPRL-NH2
fragment found (25% mouse serum): gu-O1-R17; also recorded: gu-O1-R12

gu-OWNRPVYIPRPRRPHPRL-OH
fragment found (100% mouse serum): gu-O1-R12 (Api341 analogue)

native apidaecin sequence that is substituted at position 1 with cysteine: apidaecin 1b (SEQ ID No. 2) substituted at position 1 with cysteine, from the SPOT substitution library (CNNRPVYIPQPRPPHPRL; listed as Apis mellifera)
substitution analysis value (measure of the activity; less than 1 = enhancement relative to native apidaecin) [6]: 0.55
